# Source: US5576290A, “Compositions and methods for the diagnosis and treatment of psychogenic erectile dysfunction” (Competitive Technologies, Inc., priority 1994, dated 1996)
# Bridge positions count the residues as written; N and C are the ends. Square brackets hold non-standard residues; d marks the D form. Ends that are not written are not given here. Peptide text beside a SMILES is read from it. Nle = CCCC[C@H](N)C(=O)O
# Legend:
# [1] = system: men; settings: oral, a few hundred men treated for depression, early 1980s; cited from earlier work
# [2] = system: patients; settings: cited from earlier work
# [3] = system: human volunteers; assay: Erectile response after subcutaneous injection of peptide in human volunteers; format: in vivo
# Protocol: The peptides described herein were prepared by sterile methods to a final concentration of 10 mg of peptide per ml of physiological saline. In addition to a full dose providing 10 mg of the peptide to the individual, doses of 0.1 to 0.3 ml (providing 1 mg to 3 mg of the peptide to each individual) of this stock material were also injected into volunteers, with a dose of 0.1 to 0.2 ml being the most often used dosage.
# The onset of erection occurred about 1 to 2 hours after injection. […] A dose of 3.75 mg given to volunteers produced a long lasting erection of 4 to 6 hour duration. […] In some, this discomfort was considerable. […] Accordingly, although dosages of from about 1.0 mg to about 10.0 mg show the desired activity according to the present invention, it is preferred that the lower ranges of dosage which bring about the desired erection without undesirable side effects be used. Accordingly, it is preferred that dosages of about 1.5 mg to 2.5 mg of peptide be provided when the route of administration is subcutaneous or intramuscular. With other routes of administration, this range may require adjustment, however, it is still preferred that the lower range of adjusted effective dosages for the selected route of administration be used.
# [4] = injection, alone or combined with phentolamine
compound,measurement,setting,value
O=c1n(CCCN2CCN(c3cccc(Cl)c3)CC2)nc2ccccn12 [trazodone],erections as unexpected effect,[1],prolonged and painful erections
"vasoactive intestinal peptide (HSDAVFTDNYTRLRKQMAVKKYLNSILN; ends and bridges not checked; UniProt P01282 125-152, looked up)",induction of full erection necessary for intercourse,"[2]; intrapenile injections, trials",proven ineffective
COc1ccc(Cc2nccc3cc(OC)c(OC)cc23)cc1OC [papaverine],share of patients in whom erection is induced,[2]; [4],about 70%
same,side effects,[2]; [4],"pain, ecchymosis, and occasional episodes of priapism"
CCCC[C@H](NC(C)=O)C(=O)N[C@H]1CC(=O)NCCCC[C@@H](C(=O)NCC(N)=O)NC(=O)[C@H](Cc2c[nH]c3ccccc23)NC(=O)[C@H](CCCNC(=N)N)NC(=O)[C@@H](Cc2ccccc2)NC(=O)[C@H](Cc2c[nH]cn2)NC1=O (Ac-[Nle]DH[dF]RWKG-NH2; lactam 2-7),duration of erection (sustained intermittently),[3]; 1.25 mg dose,up to 6 hours
same,induction of erection,[3]; 1.25 mg dose,induced an erection
same,onset of erection,"[3]; 1.25 mg dose, compared with 2.5 mg",took longer to initially occur
same,time to erection following administration,[3]; 2.5 mg,≤ 60 min
same,stomach discomfort,[3]; 2.5 mg and 1.25 mg doses,No stomach discomfort was experienced
